Values of other authors as cited in patent US12728162B2, “Methods of treating lung cancer with a PD-1 axis binding antagonist, a platinum agent, and a topoisomerase II inhibitor” (Genentech, Inc., priority 2018, dated 2026).

## [NH3+][Pt-2]1([NH3+])[O]C(=O)C2(CCC2)C(=O)[O]1 [Carboplatin, platinum, diammine [1,1-cyclobutanedicarboxylato (2-)-O,O′]—, (SP-4-2)]
ethanol, acetone, and dimethylacetamide
  solubility in organic solvents: virtually insoluble
water
  solubility in water: approximately 14 mg/mL
